Test results published in ChEMBL document CHEMBL4819051, “Synthesis and antifungal activity of new hybrids thiazolo[4,5-d]pyrimidines with (1H-1,2,4)triazole” (Bioorg Med Chem Lett, 2021).
Values after ≈ are worked out from the molar mass of the structure shown.

What was measured:
[1] = 1-octanol/aqueous buffer distribution coefficient, logP of the compound at pH 7.4; format: physicochemical
Pichia kudriavzevii [2] = test: Antifungal activity against Candida krusei 432M assessed as reduction in fungal growth incubated for 48 hrs by CLSI based serial microbroth dilution method; format: functional
Nakaseomyces glabratus [3] = test: Antifungal activity against Candida glabrata 61L assessed as reduction in fungal growth incubated for 24 hrs by CLSI based serial microbroth dilution method; format: functional
Aspergillus niger [4] = test: Antifungal activity against Aspergillus niger 37a assessed as reduction in fungal growth incubated for 24 hrs by CLSI based serial microbroth dilution method; format: functional
Candida albicans [5] = test: Antifungal activity against Candida albicans 8R assessed as reduction in fungal growth incubated for 24 hrs by CLSI based serial microbroth dilution method; format: functional
Candida albicans [6] = test: Antifungal activity against Candida albicans 604M assessed as reduction in fungal growth incubated for 48 hrs by CLSI based serial microbroth dilution method; format: functional
Candida parapsilosis [7] = test: Antifungal activity against Candida parapsilosis ATCC 22019 assessed as reduction in fungal growth incubated for 48 hrs by CLSI based serial microbroth dilution method; format: functional; conditions: Lodderomyces parapsilosis
Candida albicans [8] = test: Antifungal activity against Candida albicans ATCC 24433 assessed as reduction in fungal growth incubated for 24 hrs by CLSI based serial microbroth dilution method; format: functional
Candida albicans [9] = test: Antifungal activity against Candida albicans 604M assessed as reduction in fungal growth incubated for 24 hrs by CLSI based serial microbroth dilution method; format: functional
Cyberlindnera jadinii [10] = test: Antifungal activity against Candida utilis 84 assessed as reduction in fungal growth incubated for 48 hrs by CLSI based serial microbroth dilution method; format: functional; conditions: Williopsis jadinii
Nakaseomyces glabratus [11] = test: Antifungal activity against Candida glabrata 61L assessed as reduction in fungal growth incubated for 48 hrs by CLSI based serial microbroth dilution method; format: functional
Microsporum canis [12] = test: Antifungal activity against Microsporum canis B-200 assessed as reduction in fungal growth incubated for 48 hrs by CLSI based serial microbroth dilution method; format: functional
Candida albicans [13] = test: Antifungal activity against Candida albicans CBS 8837 assessed as reduction in fungal growth incubated for 48 hrs by CLSI based serial microbroth dilution method; format: functional
Microsporum canis [14] = test: Antifungal activity against Microsporum canis B-200 assessed as reduction in fungal growth incubated for 24 hrs by CLSI based serial microbroth dilution method; format: functional
Candida parapsilosis [15] = test: Antifungal activity against Candida parapsilosis ATCC 22019 assessed as reduction in fungal growth incubated for 24 hrs by CLSI based serial microbroth dilution method; format: functional; conditions: Lodderomyces parapsilosis
Cryptococcus neoformans [16] = test: Antifungal activity against Cryptococcus neoformans assessed as reduction in fungal growth incubated for 24 hrs by CLSI based serial microbroth dilution method; format: functional
Candida tropicalis [17] = test: Antifungal activity against Candida tropicalis 3019 assessed as reduction in fungal growth incubated for 24 hrs by CLSI based serial microbroth dilution method; format: functional
Cryptococcus neoformans [18] = test: Antifungal activity against Cryptococcus neoformans assessed as reduction in fungal growth incubated for 48 hrs by CLSI based serial microbroth dilution method; format: functional
Aspergillus niger [19] = test: Antifungal activity against Aspergillus niger 37a assessed as reduction in fungal growth incubated for 48 hrs by CLSI based serial microbroth dilution method; format: functional
Candida albicans [20] = test: Antifungal activity against Candida albicans ATCC 24433 assessed as reduction in fungal growth incubated for 48 hrs by CLSI based serial microbroth dilution method; format: functional
Candida albicans [21] = test: Antifungal activity against Candida albicans CBS 8837 assessed as reduction in fungal growth incubated for 24 hrs by CLSI based serial microbroth dilution method; format: functional
Candida albicans [22] = test: Antifungal activity against Candida albicans 8R assessed as reduction in fungal growth incubated for 48 hrs by CLSI based serial microbroth dilution method; format: functional
Trichophyton rubrum [23] = test: Antifungal activity against Trichophyton rubrum 2002 assessed as reduction in fungal growth incubated for 24 hrs by CLSI based serial microbroth dilution method; format: functional
Cyberlindnera jadinii [24] = test: Antifungal activity against Candida utilis 84 assessed as reduction in fungal growth incubated for 24 hrs by CLSI based serial microbroth dilution method; format: functional; conditions: Williopsis jadinii
Trichophyton rubrum [25] = test: Antifungal activity against Trichophyton rubrum 2002 assessed as reduction in fungal growth incubated for 48 hrs by CLSI based serial microbroth dilution method; format: functional
Candida tropicalis [26] = test: Antifungal activity against Candida tropicalis 3019 assessed as reduction in fungal growth incubated for 48 hrs by CLSI based serial microbroth dilution method; format: functional
Pichia kudriavzevii [27] = test: Antifungal activity against Candida krusei 432M assessed as reduction in fungal growth incubated for 24 hrs by CLSI based serial microbroth dilution method; format: functional

Question: Which logD [1] does the source give for `O=c1c2sc(=S)n(-c3ccc(F)cc3)c2ncn1CC(O)(Cn1cncn1)c1ccc(F)cc1F` (stereo not drawn) here?
Answer: 0.47

Question: For `Cc1ccc(-n2c(=S)sc3c(=O)n(CC(=O)NCC(O)(Cn4cncn4)c4ccc(F)cc4F)cnc32)cc1` (stereo not drawn), which logD [1] is on record?
Answer: 1.27

Question: Which logD [1] does the source give for `Cc1ccc(-n2c(=S)sc3c(=O)n(CC(O)(Cn4cncn4)c4ccc(F)cc4F)cnc32)cc1` (stereo not drawn) here?
Answer: 0.79

Question: Which results are given for `O=c1c2sc(=S)n(-c3ccc(Cl)cc3)c2ncn1CCCN1CCN(CC(O)(Cn2cncn2)c2ccc(F)cc2F)CC1` (stereo not drawn)?
Answer: MIC (Pichia kudriavzevii [2]): 32 µg/mL (≈ 48.5 µM); MIC (Nakaseomyces glabratus [3]): 2 µg/mL (≈ 3.03 µM); MIC (Aspergillus niger [4]): 32 µg/mL (≈ 48.5 µM); MIC (Candida albicans [5]): 32 µg/mL (≈ 48.5 µM); MIC (Candida albicans [6]): 32 µg/mL (≈ 48.5 µM); MIC (Candida parapsilosis [7]): 0.25 µg/mL (≈ 0.379 µM); MIC (Candida albicans [8]): 16 µg/mL (≈ 24.3 µM); MIC (Candida albicans [9]): 32 µg/mL (≈ 48.5 µM); MIC (Cyberlindnera jadinii [10]): 2 µg/mL (≈ 3.03 µM); MIC (Nakaseomyces glabratus [11]): 32 µg/mL (≈ 48.5 µM); MIC (Microsporum canis [12]): 32 µg/mL (≈ 48.5 µM); MIC (Candida albicans [13]): 32 µg/mL (≈ 48.5 µM); MIC (Microsporum canis [14]): 32 µg/mL (≈ 48.5 µM); MIC (Candida parapsilosis [15]): 0.25 µg/mL (≈ 0.379 µM); MIC (Cryptococcus neoformans [16]): 32 µg/mL (≈ 48.5 µM); MIC (Candida tropicalis [17]): 8 µg/mL (≈ 12.1 µM); MIC (Cryptococcus neoformans [18]): 32 µg/mL (≈ 48.5 µM); MIC (Aspergillus niger [19]): 32 µg/mL (≈ 48.5 µM); MIC (Candida albicans [20]): 32 µg/mL (≈ 48.5 µM); MIC (Candida albicans [21]): 16 µg/mL (≈ 24.3 µM); MIC (Candida albicans [22]): 32 µg/mL (≈ 48.5 µM); MIC (Trichophyton rubrum [23]): 16 µg/mL (≈ 24.3 µM); MIC (Cyberlindnera jadinii [24]): 2 µg/mL (≈ 3.03 µM); MIC (Trichophyton rubrum [25]): 16 µg/mL (≈ 24.3 µM); MIC (Candida tropicalis [26]): 8 µg/mL (≈ 12.1 µM); MIC (Pichia kudriavzevii [27]): 16 µg/mL (≈ 24.3 µM)

Question: For `O=C(Cn1cnc2c(sc(=S)n2-c2ccc(Cl)cc2)c1=O)NCC(O)(Cn1cncn1)c1ccc(F)cc1F` (stereo not drawn), which logD [1] is on record?
Answer: 1.16

Question: What does the source list for `Cc1ccc(-n2c(=S)sc3c(=O)n(CCCN4CCN(CC(O)(Cn5cncn5)c5ccc(F)cc5F)CC4)cnc32)cc1` (stereo not drawn)?
Answer: MIC (Pichia kudriavzevii [2]): 32 µg/mL (≈ 50.1 µM); MIC (Nakaseomyces glabratus [3]): 2 µg/mL (≈ 3.13 µM); MIC (Aspergillus niger [4]): 32 µg/mL (≈ 50.1 µM); MIC (Candida albicans [5]): 16 µg/mL (≈ 25 µM); MIC (Candida albicans [6]): 32 µg/mL (≈ 50.1 µM); MIC (Candida parapsilosis [7]): 0.5 µg/mL (≈ 0.783 µM); logD [1]: 4.1; MIC (Candida albicans [8]): 16 µg/mL (≈ 25 µM); MIC (Candida albicans [9]): 32 µg/mL (≈ 50.1 µM); MIC (Cyberlindnera jadinii [10]): 4 µg/mL (≈ 6.26 µM); MIC (Nakaseomyces glabratus [11]): 32 µg/mL (≈ 50.1 µM); MIC (Microsporum canis [12]): 32 µg/mL (≈ 50.1 µM); MIC (Candida albicans [13]): 32 µg/mL (≈ 50.1 µM); MIC (Microsporum canis [14]): 32 µg/mL (≈ 50.1 µM); MIC (Candida parapsilosis [15]): 0.5 µg/mL (≈ 0.783 µM); MIC (Cryptococcus neoformans [16]): 64 µg/mL (≈ 100 µM); MIC (Candida tropicalis [17]): 8 µg/mL (≈ 12.5 µM); MIC (Cryptococcus neoformans [18]): 64 µg/mL (≈ 100 µM); MIC (Aspergillus niger [19]): 32 µg/mL (≈ 50.1 µM); MIC (Candida albicans [20]): 32 µg/mL (≈ 50.1 µM); MIC (Candida albicans [21]): 16 µg/mL (≈ 25 µM); MIC (Candida albicans [22]): 32 µg/mL (≈ 50.1 µM); MIC (Trichophyton rubrum [23]): 32 µg/mL (≈ 50.1 µM); MIC (Cyberlindnera jadinii [24]): 4 µg/mL (≈ 6.26 µM); MIC (Trichophyton rubrum [25]): 32 µg/mL (≈ 50.1 µM); MIC (Candida tropicalis [26]): 16 µg/mL (≈ 25 µM); MIC (Pichia kudriavzevii [27]): 16 µg/mL (≈ 25 µM)

Question: For `O=C(Cn1cnc2c(sc(=S)n2-c2ccc(F)cc2)c1=O)NCC(O)(Cn1cncn1)c1ccc(F)cc1F` (stereo not drawn), which logD [1] is on record?
Answer: 0.79
